The values that follow are results of earlier work, collected in patent US12168056B2, “Scintillator nanocrystal-containing compositions and methods for their use” (The Regents of the University of California, priority 2013, dated 2024).

Molecules are shown by their SMILES.

The subject of this data set is human glioblastoma (GBM) cells.

Turning to `COc1cccc2c1C(=O)c1c(O)c3c(c(O)c1C2=O)C[C@@](O)(C(=O)CO)C[C@@H]3O[C@H]1C[C@H](N)[C@H](O)[C@H](C)O1` [Dox, doxorubicin], the “suppression of GBM cells in culture” value is “potently suppresses”.
